The text below walks through data of patent US20080076129A1, “Method of Detecting an Increased Susceptibility to Breast Cancer” (priority 2000, published 2008).

The term Km denotes the concentration of substrate that gives half-maximal velocity.

One data set concerns the target T1, COMT (Homo sapiens, UniProt P21964).
T1 construct: made in house; host or cells: Escherichia coli DH5αF′Iq
T1 sequence (P21964 51-271): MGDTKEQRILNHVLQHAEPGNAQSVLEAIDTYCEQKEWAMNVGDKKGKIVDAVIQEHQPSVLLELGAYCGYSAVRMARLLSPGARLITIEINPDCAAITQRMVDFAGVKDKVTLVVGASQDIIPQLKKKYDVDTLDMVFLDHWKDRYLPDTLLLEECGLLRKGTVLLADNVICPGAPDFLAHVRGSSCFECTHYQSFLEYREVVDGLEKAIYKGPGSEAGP
The experiment in a line: Assay of COMT activity, purified recombinant His-COMT, methylation of catechol estrogens. Type of data set: biochemical. The following applies: for Km: formation of the named product from its catechol estrogen, recombinant His-COMT, 200 μM SAM, 10 min at 37° C.; for kcat: formation of the named product, in min-1 (unit assumed); for formation of product by COMT: methylation of 4-OHE2 and 4-OHE1; for Hill Coefficient: sigmoidal fit. On the procedure:
Assay of COMT Activity. Purified recombinant His-COMT (300 pmol) was reconstituted 0.5 ml of 100 mM KPO4, pH 7.4, containing 5 mM MgCl2, 10 mM β-mercaptoethanol, and 200 μM SAM. Reactions were initiated by adding varying concentrations of each individual catechol estrogen (2, 3, 6, 9, 12, 15, 20, 40, 60, 80, and 100 μM). Blanks contained all compounds except SAM. Reactions proceeded for 10 min at 37° C. with gentle shaking and then were terminated by addition of 2 ml CH2Cl2. To determine COMT activity in breast cancer cells, ZR-75 and MCF-7 cells were harvested at confluency and homogenized in 100 mM KPO4, pH 7.4, 5 mM MgCl2, 10 mM β-mercaptoethanol. Following ultracentrifugation of the cell homogenate (110,000 g, 30 min, 4° C.), the supernatant cytosol was divided into aliquots for ICELISA, protein determination (BCA assay; Pierce, Rockford, Ill.), and COMT assay. The latter was carried out in the presence of 200 μM SAM and 100 μM catechol estrogen for 20 min at 37° C. and then terminated by addition of CH2Cl2. The concentration of endogenous catechol and methoxy estrogens was below the limit of detection by gas chromatography/mass spectrometry.
Extraction and Gas Chromatography/Mass Spectrometry Analysis of Catechol Estrogens. A deuterated internal standard (100 μl of 8 mg/liter E2-d4 in methanol) was added and all estrogens extracted into the CH2Cl2 by vortex mixing for 30 s. 1.5 ml of the CH2Cl2 fraction was evaporated to dryness under air and volatile TMS derivatives prepared by heating the residue with 100 μl of 50% NO-bis(trimethylsilyl)trifluoroacetamide/1% trimethyl chlorosilane in acetonitrile at 56° C. for 30 min. The TMS derivatives of the estrogen metabolites were separated by gas chromatography (H-P 5890, Hewlett-Packard, Wilmington, Del.) on a 5% phenyl methyl silicone stationary phase fused silica capillary column (30 m×0.2 mm×0.5 μm film, HP5; Hewlett-Packard). Helium carrier gas was used at a flow of 1 ml/min. The injector was operated at 250° C., with 2 μl injected in the splitless mode, with a purge (60 ml/min helium) time of 0.6 min. The oven temperature was held at 180° C. for 0.5 min, then raised at 6° C./min to 250° C. where it was held for 17 min, then raised to 300° C. at 8° C./min to give a total run time of 35.42 min. This program permitted adequate separation of a wide range of estrogen metabolites. Retention times (in min) for the TMS derivatives were E1 20.13, E2 and E2-d4 21.89, 4-MeOE1 23.52, 2-MeO-3-MeOE1 (underivatized) 23.75, 2-OH-3-MeOE1 24.87, 2-MeOE1 25.2, 4-MeOE2 25.78, 2-OHE1 and 2-MeO-3-MeOE2 26.19, 2-OH-3-MeOE2 26.9, 2-MeOE2 27.18, 4-OHE1 27.27, 6α-OHE2 27.29, 2-OHE2 27.44, 4-OHE2 28.06, E3 28.38. The EI mass spectrometer (H-P 5970) was operated in the selected ion monitoring mode from 18 to 30 min. Ions monitored were TMS-E1 342, 257, 343; TMS2-E2-d4 420, 421, 287; TMS2-E2 416, 417, 285; TMS-4-MeOE1, TMS-2-OH-3-MeOE1, TMS-2-MeOE1 and TMS-3-MeO-4-OHE1 372, 373, 342; 2-MeO-3-MeOE1 314, 315, 229; TMS2-4-MeOE2, TMS2-2-OH-3-MeOE2, TMS2-2-MeOE2 and TMS2-3-MeO-4-OHE2 446, 447, 315; TMS2-2-OHE1 430, 431, 432; TMS-2-MeO-3-MeOE2 388, 389, 257; TMS2-4-OHE1 430, 431, 345; TMS2-6α-OHE2 414, 283, 309; TMS3-2-OHE2 and TMS3-4-OHE2 504, 505, 373; TMS3-E3 504, 505, 311 (FIG. 7). The instrument was calibrated by simultaneous preparation of an 11-point calibration over the range 0-22 nmol/tube of each compound. Sensitivity was determined to be between 0.02 and 0.04 nmol/tube (400-800 fmol on column) for the various compounds. […] Absolute extraction efficiency for E2, 2-OH-E2 and 4-OH-E2 at 3.5 nmol/tube was 119, 96, and 107% assessed by comparison to injections of spiked solvent samples onto the gas chromatograph. Internal standard added prior to extraction compensated for deviation from 100% recovery for all investigated compounds.
Statistical Analysis. […]

Another data set concerns CYP1B1. The experiment in a line: Assay of CYP1B1 E2 hydroxylation activity. Type of data set: biochemical, human. Conditions: for 2-OH-Estradiol kcat: E2 2-hydroxylation; for 4-OH-Estradiol kcat: E2 4-hydroxylation; for 16a-OH-Esrradiol kcat: E2 16α-hydroxylation. As for the experimental part:
Assay of CYP1B1 E2 Hydroxylation Activity. Purified CYP1B1 (200 pmol) was reconstituted with a 2-fold molar amount of recombinant rat NADPH-P450 reductase (400 pmol), purified as previously described, and 60 μg of L-α-dilauroyl-sn-glycero-3-phosphocholine in the presence of sodium cholate (0.005%, w/v) in 0.4 ml of 100 mM potassium phosphate buffer, pH 7.4, containing varying concentrations of E2 (2, 3, 6, 9, 12, 15, 20, 40, 60, 80, and 100 μM) and 1 mM ascorbate. An NADPH-generating system consisting of 5 mM glucose 6-phosphate and 0.5 U of glucose-6-phosphate dehydrogenase/ml was added and reactions initiated by adding NADP+ to a final concentration of 0.5 mM. Reactions proceeded for 10 min at 37° C. with gentle shaking and then were terminated by addition of 2 ml CH2Cl2.
Extraction and Gas Chromatography/Mass Spectrometry Analysis of E2 and Metabolites. A deuterated internal standard (100 μl of 8 mg/liter E2-2, 4, 16, 16-d4 in methanol; CDN Isotopes, Pointe-Claire, Quebec) was added and all steroids extracted into CH2Cl2 by vortex mixing for 30 s. 1.5 ml of the CH2Cl2 fraction was evaporated to dryness under air and volatile TMS derivatives prepared by heating the residue with 100 μl of 50% NO-bis(trimethylsilyl)trifluoroacetamide/1% trimethyl chlorosilane in acetonitrile at 56° C. for 30 min. The TMS derivatives of E2 and its metabolites were separated by gas chromatography (H-P 5890, Hewlett-Packard, Wilmington, Del.) on a 5% phenyl methyl silicone stationary phase fused silica capillary column (30 m×0.2 mm×0.5 μm film, HP5; Hewlett-Packard). Helium carrier gas was used at a flow of 1 ml/min. The injector was operated at 250° C., with 2 μl injected in the splitless mode, with a purge (60 ml/min helium) time of 0.6 min. The oven temperature was held at 189° C. for 0.5 min, then raised at 6° C./min to 250° C. where it was held for 17 min, then raised to 300° C. at 8° C./min to give a total run time of 35.42 min. […] The EI mass spectrometer (H-P 5970) was operated in the selected ion monitoring mode from 18 to 34 min. Ions monitored were TMS2-E2-d4 420, 288, 330; TMS2-E2 416, 285, 326; TMS3-2-OH-E2 504, 373; TMS3-4-OH-E2 504, 373, 325; TMS3-16α-OH-E2 345, 311, 504. The instrument was calibrated by simultaneous preparation of an 11-point calibration over the range […]/tube of each compound. […] Internal standard added prior to extraction compensated for deviation from 100% recovery.
Statistical Analysis. Kinetic parameters (Km and kcat) were determined by nonlinear regression analysis using the computer program GraphPad PRISM (San Diego, Calif.).

`COc1cc2c(cc1O)CC[C@@H]1[C@@H]2CC[C@]2(C)[C@@H](O)CC[C@@H]12` [2-MeOE2]: on COMT, the Km was 108 ± 9 µM and the kcat is 6.8 ± 0.4.

On to `C[C@]12CC[C@@H]3c4cc(O)c(O)cc4CC[C@H]3[C@@H]1CCC2=O` [2-OHE1], for which the “pattern of rates of methylation” value on COMT (substrate 2-100 μM) was “typical hyperbolic patterns”.

For `COc1cc2c(cc1O)[C@H]1CC[C@]3(C)[C@@H](O)CC[C@H]3[C@@H]1CC2` [2-OH-3-MeOE2], on COMT, the Km worked out at 51 ± 5 µM and the kcat stood at 1.5 ± 0.1.

Regarding `COc1ccc2c(c1O)CC[C@@H]1[C@@H]2CC[C@]2(C)C(=O)CC[C@@H]12` [3-MeO-4-OHE1], at COMT, the “formation of product by COMT” value is listed as “not observed”.

With `COc1cc2c(cc1O)CC[C@@H]1[C@@H]2CC[C@]2(C)C(=O)CC[C@@H]12` [2-MeOE1], at COMT, the Km was 74 ± 8 µM and the kcat was 3.3 ± 0.2.

With `COc1c(O)ccc2c1CC[C@@H]1[C@@H]2CC[C@]2(C)C(=O)CC[C@@H]12` [4-MeOE1], on COMT, the Michaelis-Menten constant (Km) is 53 ± 6 µM, the kcat is given as 6.7 ± 0.4 and the “Hill Coefficient” value was found to be 2.0 ± 0.4.

Take `COc1ccc2c(c1O)CC[C@@H]1[C@@H]2CC[C@]2(C)[C@@H](O)CC[C@@H]12` [3-MeO-4-OHE2]: at COMT, the “formation of product by COMT” value is reported as “not observed”.

As to `COc1c(O)ccc2c1CC[C@@H]1[C@@H]2CC[C@]2(C)[C@@H](O)CC[C@@H]12` [4-MeOE2], at COMT, the Km amounted to 24 ± 3 µM, the kcat is 3.4 ± 0.2 and the “Hill Coefficient” value came to 1.6 ± 0.2.

As to `COc1cc2c(cc1O)[C@H]1CC[C@]3(C)C(=O)CC[C@H]3[C@@H]1CC2` [2-OH-3-MeOE1], at COMT, the Km is 73 ± 16 µM and the kcat was 2.8 ± 0.4.

B1: Variant 4: recombinant CYP1B1 with 48Arg, 119Ala, 432Val, 453Ser (protein, UniProt Q16678 1-543, looked up, variant N453S)
Cytochrome P450 1B1: MGTSLSPNDPWPLNPLSIQQTTLLLLLSVLATVHVGQRLLRQRRRQLRSAPPGPFAWPLIGNAAAVGQAAHLSFARLARRYGDVFQIRLGSCPIVVLNGERAIHQALVQQGSAFADRPAFASFRVVSGGRSMAFGHYSEHWKVQRRAAHSMMRNFFTRQPRSRQVLEGHVLSEARELVALLVRGSADGAFLDPRPLTVVAVANVMSAVCFGCRYSHDDPEFRELLSHNEEFGRTVGAGSLVDVMPWLQYFPNPVRTVFREFEQLNRNFSNFILDKFLRHCESLRPGAAPRDMMDAFILSAEKKAAGDSHGGGARLDLENVPATITDIFGASQDTLSTALQWLLLLFTRYPDVQTRVQAELDQVVGRDRLPCMGDQPNLPYVLAFLYEAMRFSSFVPVTIPHATTANTSVLGYHIPKDTVVFVNQWSVNHDPLKWPNPENFDPARFLDKDGLISKDLTSRVMIFSVGKRRCIGEELSKMQLFLFISILAHQCDFRANPNEPAKMNFSYGLTIKPKSFKVNVTLRESMELLDSAVQNLQAKETCQ
In the data set with CYP1B1, B1 returned a 2-OH-Estradiol kcat of 2.8 ± 0.2 min⁻¹, a 4-OH-Estradiol kcat of 4.5 ± 0.3 min⁻¹ and a 16a-OH-Esrradiol kcat of 0.39 ± 0.02 min⁻¹.

B2: Variant 1: recombinant CYP1B1 with 48Gly, 119Ala, 432Val, 453Asn (protein, UniProt Q16678 1-543, looked up, variant R48G)
Cytochrome P450 1B1: MGTSLSPNDPWPLNPLSIQQTTLLLLLSVLATVHVGQRLLRQRRRQLGSAPPGPFAWPLIGNAAAVGQAAHLSFARLARRYGDVFQIRLGSCPIVVLNGERAIHQALVQQGSAFADRPAFASFRVVSGGRSMAFGHYSEHWKVQRRAAHSMMRNFFTRQPRSRQVLEGHVLSEARELVALLVRGSADGAFLDPRPLTVVAVANVMSAVCFGCRYSHDDPEFRELLSHNEEFGRTVGAGSLVDVMPWLQYFPNPVRTVFREFEQLNRNFSNFILDKFLRHCESLRPGAAPRDMMDAFILSAEKKAAGDSHGGGARLDLENVPATITDIFGASQDTLSTALQWLLLLFTRYPDVQTRVQAELDQVVGRDRLPCMGDQPNLPYVLAFLYEAMRFSSFVPVTIPHATTANTSVLGYHIPKDTVVFVNQWSVNHDPLKWPNPENFDPARFLDKDGLINKDLTSRVMIFSVGKRRCIGEELSKMQLFLFISILAHQCDFRANPNEPAKMNFSYGLTIKPKSFKVNVTLRESMELLDSAVQNLQAKETCQ
In the data set with CYP1B1, B2 displayed a 2-OH-Estradiol kcat of 3.2 ± 0.2 min⁻¹, a 4-OH-Estradiol kcat of 6.0 ± 0.2 min⁻¹ and a 16a-OH-Esrradiol kcat of 0.56 ± 0.04 min⁻¹.
